Experimental data published in patent publication US12527817B2, “Manufacturing of selenium disulfide compositions” (Azura Ophthalmics Ltd., priority 2020, dated 2026).

Test: Particle size analysis under a microscope (400x magnification)
Format: physicochemical
Settings: mixing liquid petrolatum at 60° C. with micronized SeS2, 400× microscope magnification
Experimental: FIG. 4 illustrates SeS2 formulation obtained mixing liquid petrolatum at a temperature of 60° C. with micronized SeS2 at 400× microscope magnification showing the presence of SeS2 particles larger than 25 microns.
FIG. 3 illustrates a 1% SeS2 (w/w) formulation obtained using the low temperature process.
The active ingredient was SeS2, wherein the particle size distribution D90 is less than 10 microns. The base medium was USP grade petrolatum. A reaction vessel capable of accepting a high shear mixing apparatus was charged with the USP grade petrolatum. In order to create uniform particles distribution in the petrolatum, high shear mixing was applied to disperse the particles. Addition of the active ingredients to the bulk while the whole bulk is agitated is essential in order to properly disperse the active ingredient, the high shear head was used to break the agglomerates to primary particles creating a uniform and homogeneous paste.

S=[Se]=S [SeS2, selenium disulfide]
SeS2 particle size: over 25 microns
